According to US20210318318A1, “Kinase Activity In Tumors” (Institute For Cancer Research d/b/a The Research Institute …, priority 2018, published 2021):

Columns and labels:
Experiment in all cases: MIB/MS kinome profiling of inhibitor-treated OVSAHO cells
Format in all cases: cell-based
Conditions in all cases: 2 μM, 4 hours
MAP3K12 = target: T1, MAP3K12 (Homo sapiens, UniProt Q12852)
T1 construct: endogenous in cells; host or cells: OVSAHO
T1 sequence (Q12852 1-859): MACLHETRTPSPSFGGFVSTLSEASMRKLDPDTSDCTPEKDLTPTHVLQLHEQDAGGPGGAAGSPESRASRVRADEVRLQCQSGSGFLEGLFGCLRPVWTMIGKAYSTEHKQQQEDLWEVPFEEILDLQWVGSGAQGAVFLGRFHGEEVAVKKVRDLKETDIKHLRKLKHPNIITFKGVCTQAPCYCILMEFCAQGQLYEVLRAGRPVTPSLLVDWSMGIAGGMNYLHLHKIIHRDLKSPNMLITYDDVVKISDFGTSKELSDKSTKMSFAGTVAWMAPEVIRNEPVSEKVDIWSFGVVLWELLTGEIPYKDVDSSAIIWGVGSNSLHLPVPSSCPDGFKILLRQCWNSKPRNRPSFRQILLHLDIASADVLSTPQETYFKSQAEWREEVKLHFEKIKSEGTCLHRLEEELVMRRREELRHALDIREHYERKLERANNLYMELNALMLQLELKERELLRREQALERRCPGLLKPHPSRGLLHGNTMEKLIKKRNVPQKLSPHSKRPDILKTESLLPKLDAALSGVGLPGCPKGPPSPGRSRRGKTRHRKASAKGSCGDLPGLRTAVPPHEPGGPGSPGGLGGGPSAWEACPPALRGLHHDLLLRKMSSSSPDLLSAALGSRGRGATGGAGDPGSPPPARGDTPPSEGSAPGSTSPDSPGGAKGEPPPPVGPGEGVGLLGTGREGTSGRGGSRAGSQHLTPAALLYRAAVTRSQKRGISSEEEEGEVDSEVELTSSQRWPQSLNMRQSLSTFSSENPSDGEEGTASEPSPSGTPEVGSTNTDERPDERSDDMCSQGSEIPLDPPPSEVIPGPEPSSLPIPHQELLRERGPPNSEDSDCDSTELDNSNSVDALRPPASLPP
Method: (§1) OVSAHO cells were treated with 2 μM of inhibitor for 4 hours and analyzed by MIB/MS. Scatterplot depicts difference in kinase MIB-binding of drug treated relative to control DMSO as determined by Students T-test.
(§2) MIB-based kinome profiling was performed on several of these molecules in HGSOC cells to determine kinome-wide inhibition profiles.
(§3) Experiments using MIB/MS were performed as previously described (Duncan et al., Cell, 2012, 149, 307-321; and Kurimchak et al., Cell Reports, 2016, 16, 1273-1286). Briefly, cells or tumors were lysed on ice in buffer containing 50 mM HEPES (pH 7.5), 0.5% Triton X-100, 150 mM NaCl, 1 mM EDTA, 1 mM EGTA, 10 mM sodium fluoride, 2.5 mM sodium orthovanadate, 1× protease inhibitor cocktail (Roche), and 1% each of phosphatase inhibitor cocktails 2 and 3 (Sigma). Particulate was removed by centrifugation of lysates at 13,000 rpm for 10 minutes at 4° C. and filtration through 0.2 μm syringe filters. Protein concentrations were determined by BCA analysis (Thermo). To compare kinome signatures within and across such large sample sizes, a super-SILAC method was designed (Neubert et al., Nat. Meth., 2010, 7, 361-362) consisting of a cocktail of cancer cell lines that encompasses the activity of the “cancer kinome” to be used as a control for individual samples. Five cancer cell lines were selected from the NCI-60 panel (UACC257, MOLT4, COL0205, ACHN and PC3) that differed in their origin, gene expression patterns and mutation status. The cancer cell lines were labeled using SILAC and mixed equally providing a diverse SILAC ([^13C6,^15N4] arginine (Arg^10) and […] (Lys^8)) heavy kinome reference standard (HKS) to be used repeatedly in kinome profiling assays. An equal amount of the HKS was added to the non-labeled sample (cell, tumor or normal tissue) providing a quantitative strategy to compare kinome activity/levels across samples, amongst treatments and, importantly, across time. Endogenous kinases were isolated by flowing lysates over kinase inhibitor-conjugated Sepharose beads (purvalanol B, VI16832, PP58 and CTx-0294885 beads were used) in 10 ml gravity-flow columns. After 2×10 ml column washes in high-salt buffer and 1×10 ml wash in low-salt buffer (containing 50 mM HEPES (pH 7.5), 0.5% Triton X-100, 1 mM EDTA, 1 mM EGTA, and 10 mM sodium fluoride, and 1M NaCl or 150 mM NaCl, respectively), retained kinases were eluted from the column by boiling in 2×500 μL of 0.5% SDS, 0.1 M TrisHCl (pH 6.8), and 1% 2-mercaptoethanol. Eluted peptides were reduced by incubation with 5 mM DTT at 60° C. for 25 minutes, alkylated with 20 mM iodoacetamide at room temperature for 30 minutes in the dark and alkylation was quenched with DTT. Samples were concentrated to approximately 100 μL with Millipore 10 kD cutoff spin concentrators. Detergent was removed by chloroform/methanol extraction, and the protein pellet was resuspended in 100 mM ammonium bicarbonate and digested with sequencing-grade modified trypsin (Promega) overnight at 37° C. […]
(§4) Proteolytic peptides were resuspended in 0.1% formic acid and separated with a Thermo RSLC Ultimate 3000 on a Thermo Easy-Spray C18 PepMap 75 μm×50 cm C-18 2 μm column with a 240 minute gradient of 4-25% acetonitrile with 0.1% formic acid at 300 nL/min and 50° C. Eluted peptides were analyzed by a Thermo Q Exactive plus mass spectrometer utilizing a top 15 methodology in which the 15 most intense peptide precursor ions were subjected to fragmentation. […]

CDK8 = target: T2, CDK8 (Homo sapiens, UniProt P49336)
T2 construct: endogenous in cells; host or cells: OVSAHO
Method: as §1, §2, §3, §4

CLK2 = target: T3, CLK2 (Homo sapiens, UniProt P49760)
T3 construct: endogenous in cells; host or cells: OVSAHO
Method: as §1, §2, §3, §4

PRCKD = target: T4, PRCKD (Homo sapiens, UniProt Q05655)
T4 construct: endogenous in cells; host or cells: OVSAHO
Method: as §1, §2, §3, §4

AAK1 = target: T5, AAK1 (Homo sapiens, UniProt Q2M2I8)
T5 construct: endogenous in cells; host or cells: OVSAHO
Method: as §1, §2, §3, §4

T2 sequence (P49336 whole entry): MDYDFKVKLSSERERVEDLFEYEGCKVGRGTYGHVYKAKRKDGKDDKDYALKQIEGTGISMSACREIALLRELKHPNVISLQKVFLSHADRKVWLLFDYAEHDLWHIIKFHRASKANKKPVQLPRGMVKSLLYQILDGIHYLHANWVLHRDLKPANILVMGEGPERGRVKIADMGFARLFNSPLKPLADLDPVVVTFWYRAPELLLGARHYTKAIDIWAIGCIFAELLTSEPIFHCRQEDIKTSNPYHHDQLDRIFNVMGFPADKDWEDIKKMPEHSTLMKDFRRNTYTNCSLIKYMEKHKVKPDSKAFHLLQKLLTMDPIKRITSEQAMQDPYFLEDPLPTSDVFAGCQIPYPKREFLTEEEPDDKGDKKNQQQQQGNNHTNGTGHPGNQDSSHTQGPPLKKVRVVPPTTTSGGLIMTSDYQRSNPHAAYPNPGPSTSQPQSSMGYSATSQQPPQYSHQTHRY
T2 sequence (P24863 whole entry partner): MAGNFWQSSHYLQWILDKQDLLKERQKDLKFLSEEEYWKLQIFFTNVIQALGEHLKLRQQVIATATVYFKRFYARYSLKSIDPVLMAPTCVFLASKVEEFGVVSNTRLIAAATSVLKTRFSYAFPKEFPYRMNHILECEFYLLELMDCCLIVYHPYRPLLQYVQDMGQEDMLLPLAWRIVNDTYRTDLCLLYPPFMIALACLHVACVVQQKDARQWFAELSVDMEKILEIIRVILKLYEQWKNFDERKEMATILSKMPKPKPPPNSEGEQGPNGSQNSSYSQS
T5 sequence (Q2M2I8 whole entry): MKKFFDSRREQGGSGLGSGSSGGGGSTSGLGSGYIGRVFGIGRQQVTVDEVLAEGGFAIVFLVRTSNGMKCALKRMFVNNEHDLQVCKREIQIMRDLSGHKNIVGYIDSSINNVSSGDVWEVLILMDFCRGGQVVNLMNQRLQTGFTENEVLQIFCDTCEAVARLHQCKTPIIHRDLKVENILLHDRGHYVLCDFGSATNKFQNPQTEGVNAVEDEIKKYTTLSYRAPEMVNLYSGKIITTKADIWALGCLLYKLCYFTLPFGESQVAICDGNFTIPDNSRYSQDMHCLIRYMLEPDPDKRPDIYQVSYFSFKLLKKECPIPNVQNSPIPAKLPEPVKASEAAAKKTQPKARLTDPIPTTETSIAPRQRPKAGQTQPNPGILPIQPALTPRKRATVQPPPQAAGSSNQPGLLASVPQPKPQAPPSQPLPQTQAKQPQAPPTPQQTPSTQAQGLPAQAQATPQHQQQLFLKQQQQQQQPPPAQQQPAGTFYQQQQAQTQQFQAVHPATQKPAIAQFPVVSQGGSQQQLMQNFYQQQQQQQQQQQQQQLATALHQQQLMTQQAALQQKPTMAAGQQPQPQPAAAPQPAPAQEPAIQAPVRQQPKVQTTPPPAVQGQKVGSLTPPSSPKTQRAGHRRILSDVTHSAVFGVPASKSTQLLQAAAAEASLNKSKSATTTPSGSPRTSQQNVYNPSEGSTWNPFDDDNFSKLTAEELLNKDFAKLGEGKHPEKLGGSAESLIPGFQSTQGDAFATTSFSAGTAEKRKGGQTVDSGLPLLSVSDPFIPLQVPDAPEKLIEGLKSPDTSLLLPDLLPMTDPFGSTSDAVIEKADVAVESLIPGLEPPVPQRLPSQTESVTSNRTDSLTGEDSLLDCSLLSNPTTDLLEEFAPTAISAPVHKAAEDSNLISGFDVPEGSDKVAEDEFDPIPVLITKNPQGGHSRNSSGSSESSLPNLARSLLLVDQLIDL
T3 sequence (P49760 whole entry): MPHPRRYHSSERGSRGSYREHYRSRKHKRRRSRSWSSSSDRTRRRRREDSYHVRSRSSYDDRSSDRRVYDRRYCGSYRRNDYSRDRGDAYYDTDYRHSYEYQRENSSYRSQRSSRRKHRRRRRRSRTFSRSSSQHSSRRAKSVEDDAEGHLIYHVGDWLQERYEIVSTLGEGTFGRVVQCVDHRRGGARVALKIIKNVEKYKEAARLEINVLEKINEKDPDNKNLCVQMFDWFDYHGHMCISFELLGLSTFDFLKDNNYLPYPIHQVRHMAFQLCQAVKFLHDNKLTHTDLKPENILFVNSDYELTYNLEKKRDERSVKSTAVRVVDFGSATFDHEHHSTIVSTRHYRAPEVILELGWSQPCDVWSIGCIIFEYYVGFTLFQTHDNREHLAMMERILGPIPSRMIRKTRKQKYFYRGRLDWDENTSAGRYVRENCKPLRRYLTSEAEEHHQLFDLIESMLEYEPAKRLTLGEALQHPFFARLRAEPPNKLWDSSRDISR
T4 sequence (Q05655 whole entry): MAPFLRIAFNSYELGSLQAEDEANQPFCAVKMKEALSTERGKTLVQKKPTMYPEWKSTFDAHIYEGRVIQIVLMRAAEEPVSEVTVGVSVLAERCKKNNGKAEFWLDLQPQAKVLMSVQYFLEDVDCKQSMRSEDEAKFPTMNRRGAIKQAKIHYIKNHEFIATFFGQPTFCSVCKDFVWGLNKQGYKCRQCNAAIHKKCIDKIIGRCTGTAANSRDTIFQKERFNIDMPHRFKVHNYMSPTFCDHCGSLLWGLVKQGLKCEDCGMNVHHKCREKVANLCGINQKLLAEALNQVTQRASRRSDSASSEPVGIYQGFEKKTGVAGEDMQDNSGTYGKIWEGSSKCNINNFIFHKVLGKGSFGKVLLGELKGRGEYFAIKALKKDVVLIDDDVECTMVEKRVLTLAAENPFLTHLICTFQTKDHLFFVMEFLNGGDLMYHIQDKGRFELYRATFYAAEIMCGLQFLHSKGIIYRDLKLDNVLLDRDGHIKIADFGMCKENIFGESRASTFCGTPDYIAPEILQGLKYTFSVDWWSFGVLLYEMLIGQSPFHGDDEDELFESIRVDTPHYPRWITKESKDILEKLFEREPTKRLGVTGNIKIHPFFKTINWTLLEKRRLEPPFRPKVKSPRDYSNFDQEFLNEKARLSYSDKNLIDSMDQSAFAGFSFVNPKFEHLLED

Cc1[nH]nc2ccc(-c3cncc(OC[C@@H](N)Cc4ccccc4)c3)cc12 [A-674563]
inhibited: MIB-binding of MAP3K12 (MAP3K12) | MIB-binding of CDK8 (CDK8) | MIB-binding of CLK2 (CLK2) | MIB-binding of PRCKD (PRCKD) | MIB-binding of AAK1 (AAK1)
